# From patent US10167507B2, “Metabolic diseases-related odorant receptor genes and use thereof” (INDUSTRY-ACADEMIC COOPERATION FOUNDATION, YONSEI UNIVERSITY, priority 2010, dated 2019)
# Legend:
# [1] = system: olfactory receptors in visceral fat tissue; assay: OligoDNA microarray, visceral fat tissue of HFD mice fed odor components; format: in vivo, mouse; conditions: supplemented to HFD-fed mouse 10 weeks
# Experimental: DNA microarry analysis using RNAs of visceral fat and liver tissue was conducted by GENOCHECK (CO., LTD.). RNA samples were pooled from 10 mice in each experimental group and subjected to microarray experiments in triplicate for the test of reproducibility. NimbleGen Mouse Whole Oligo 12-plex chip used in this experiment was prepared by triplicating 42,576 genes using Mouse Genome Build 8 as database. In NimbleGen mouse Whole Oligo 12-plex chip, 137,090 spots excluded control group gene were spotted by 16 μm×16 μm size in 17.4 mm×13 mm size. 42,576 oligo included 137,145 genes which are known their functions and 5,431 transcripts and EST sequences which are unknown their functions. 10-50 μg of total RNA was added in oligo-dT primer, reverse transcriptase, dNTP, Cy3-dUTP and Cy5-dUTP, and reverse-transcripted according to the kit manufacturer's recommendations. The resultant was purified using cartridge, dried and dissolved in hybridization buffer solution (30 μL). The microarray was placed in hybridization cassette, heated at 95-100° C. for 5 min, mixed independently to each of RNA labeled with Cy3 and Cy5, and hybridized at 45° C. for 18 hrs. The slide was washed twice in solution containing 1×SSC and 0.1% SDS for 5 min, washed in 1×SSC for 5 min and dried to analyze.
# [2] = system: olfactory receptors in liver tissue; assay: OligoDNA microarray, liver tissue of HFD mice fed odor components; format: in vivo, mouse; conditions: supplemented to HFD-fed mouse 10 weeks
# Text: (§1) The obesity-inducing control diet used in the test was high-fat diet (HFD: 40% fat calorie, 17 g lard+3% corn oil/100 g diet). Diets supplemented with an odor component had the same composition as HFD, except that each of various types of odor components (indol-3-carbinol, oleuropein, cedryl acetate, α-cedrene and piperine) having anti-obesity efficacy was contained in 0.02-0.05% concentration. Indo)-3-carbinol, oleuropein, cedryl acetate, a-cedrene and piperine were purchased from Sigma-Aldrich.
# (§2) After adding Trizol agent to visceral fat or liver tissue, the mixture was homogenized and centrifuged at 12,000×g for 10 min at 4° C. The supernatant was transferred to a new tube to remove fat layer. Then, 200 μl of chloroform was added to the tube, followed by vortexing. The same procedure was repeated twice and then the supernatant was transferred to a new tube, followed by addition of isopropanol and the supernatant at 1:1 ratio. The mixture was vigorously shaken 10 times and then incubated for 10 min at room temperature, followed by centrifugation at 12,000×g for 10 min at 4° C. to remove the supernatant. After adding 1 mL of 70% ethanol to the remaining pellet, it was centrifuged at 7,500×g for 5 min at 4° C. After removing the ethanol, the RNA pellet contained in the tube was dried for 5 min at 4° C. and dissolved in nuclease-free water. The RNA sample concentration was measured at a wavelength of 260 nm and 280 nm using a UV/VIS spectrophotometer (Beckman coulter, DU730) and the integrity of RNA sample was verified by agarose gel electrophoresis.
# (§3) DNA microarry analysis using RNAs of visceral fat and liver tissue was conducted by GENOCHECK (CO., LTD.). RNA samples were pooled from 10 mice in each experimental group and subjected to microarray experiments in triplicate for the test of reproducibility. NimbleGen Mouse Whole Oligo 12-plex chip used in this experiment was prepared by triplicating 42,576 genes using Mouse Genome Build 8 as database. In NimbleGen mouse Whole Oligo 12-plex chip, 137,090 spots excluded control group gene were spotted by 16 μm×16 μm size in 17.4 mm×13 mm size. 42,576 oligo included […] genes which are known their functions and 5,431 transcripts and EST sequences which are unknown their functions. 10-50 μg of total RNA was added in oligo-dT primer, reverse transcriptase, dNTP, Cy3-dUTP and Cy5-dUTP, and reverse-transcripted according to the kit manufacturer's recommendations. The resultant was purified using cartridge, dried and dissolved in hybridization buffer solution (30 μL). The microarray was placed in hybridization cassette, heated at 95-100° C. for 5 min, mixed independently to each of RNA labeled with Cy3 and Cy5, and hybridized at 45° C. for 18 hrs. The slide was washed twice in solution containing 1×SSC and 0.1% SDS for 5 min, washed in 1×SSC for 5 min and dried to analyze.
# (§4) The profile for olfactory receptors in which the expression was regulated by more than 2-fold change due to intake of odor components at each tissue was shown in Tables 5. As a result, it was determined that various types of odor components having anti-obesity efficacy regulated a plurality of olfactory receptors in peripheral tissues.
# [3] = system: olfactory receptors in visceral fat and liver tissues; assay: OligoDNA microarray, visceral fat and liver tissues of HFD mice fed odor components (tissue not separated in text); format: in vivo; conditions: supplemented to mouse fed high-fat diet for 10 weeks
# Text: as §1, §2, §3, §4
# [4] = system: obesity and metabolic diseases-related genes in visceral fat tissue; assay: RT-PCR of obesity and metabolic diseases-related genes, visceral fat tissue; format: in vivo, mouse; conditions: odor component-supplemented group to the HFD control group
# Experimental: (§5) After adding 1 mL of Trizol agent (Invitrogen, USA) per 0.1 g of visceral fat or liver tissues, the mixture was homogenized and centrifuged at 12,000×g for 10 min at 4° C. The supernatant was transferred to a new tube and 200 μl of chloroform was added to the tube, followed by vortexing. The same procedure was repeated twice and then the supernatant was transferred to a new tube, followed by addition of isopropanol and the supernatant at 1:1 ratio. The mixture was vigorously shaken 10 times and then incubated for 10 min at room temperature, followed by centrifugation at 12,000×g for 10 min at 4° C. to remove the supernatant. After adding 1 mL of 70% ethanol to the remaining pellet, it was centrifuged at 7,500×g for 5 min at 4° C. After removing the ethanol, the RNA pellet contained in the tube was dried for 5 min at 4° C. and dissolved in nuclease-free water. The RNA sample concentration was measured at a wavelength of 260 nm and 280 nm using a UV/VIS spectrophotometer (Beckman coulter, DU730) and the integrity of RNA sample was verified by agarose gel electrophoresis. The RNA sample obtained from the visceral fat or liver tissues was trasnscribed using oligo dT primer and reverse transcriptase (GIBCO BRL, Gaithersburg, Md., USA) to synthesize cDNA. The PCR amplification was performed using the cDNA as templates and primers complementary to cDNA [NT] flanking sequence. 1 μl of the amplified products were resolved on agarose gel electrophoresis to verify DNA band.
# [5] = system: obesity and metabolic diseases-related genes in liver tissue; assay: RT-PCR of obesity and metabolic diseases-related genes, liver tissue; format: in vivo, mouse; conditions: odor component-supplemented group to the HFD control group
# Experimental: as §5
# [6] = system: HSL (hormone sensitive lipase); assay: Western blotting, protein phosphorylation of HSL; format: in vivo, mouse; conditions: odor component-supplemented group to the HFD control group
# Experimental: (§6) A certain amount of visceral fat or liver tissues in mortar was homogenized with liquid nitrogen and cell lysis buffer. The mixture was transferred to a new tube, followed by vortexing. After centrifugation at 13,000×g for 20 min at 4° C., the middle layer of the tube was obtained and proteins were quantified by Bradford method. 50 μg of protein was electrophorized to SDS polyacrylamide gel, followed by electroblotting to PVDF hyper film. The protein was reacted using an appropriate antibody for the protein and detected by ECL, whereby insulin resistance, adipocyte differentiation, lipid metabolism or energy consumption-related mechanism of phytochemical components was investigated in the protein level.
# (§7) In order to verify this, protein phosphorylations of HSL (hormone sensitive lipase), CREB (cAMP-responsive element binding protein) and AKT (v-akt murine thymoma viral oncogene) were evaluated by western blotting analysis.
# [7] = system: CREB (cAMP-responsive element binding protein); assay: Western blotting, protein phosphorylation of CREB; format: in vivo, mouse; conditions: odor component-supplemented group to the HFD control group
# Experimental: as §6, §7
# [8] = system: AKT (v-akt murine thymoma viral oncogene); assay: Western blotting, protein phosphorylation of AKT; format: in vivo, mouse; conditions: odor component-supplemented group to the HFD control group
# Experimental: as §6, §7
smiles,measurement,setting,value
C/C=C1/[C@H](O[C@@H]2O[C@H](CO)[C@@H](O)[C@H](O)[C@H]2O)OC=C(C(=O)OC)[C@H]1CC(=O)OCCc1ccc(O)c(O)c1 [oleuropein],Olfr290 expression fold change to HFD group,[1],2.32
same,Olfr341 expression fold change to HFD group,[1],0.3
same,Olfr495 expression fold change to HFD group,[1],0.21
same,Olfr520 expression fold change to HFD group,[1],2.08
same,Olfr907 expression fold change to HFD group,[1],0.49
same,Olfr971 expression fold change to HFD group,[1],2.37
same,Olfr1046 expression fold change to HFD group,[1],2.01
same,Olfr1104 expression fold change to HFD group,[1],4.39
same,Olfr1447 expression fold change to HFD group,[1],2.33
same,Olfr341 expression fold change to HFD group,[1]; listed as Oleuropein,0.30
same,Olfr38 expression fold change to HFD group,[2],2.35
same,Olfr275 expression fold change to HFD group,[2],2.49
same,Olfr1136 expression fold change to HFD group,[2],0.49
same,Olfr1204 expression fold change to HFD group,[2],2.21
same,Olfr1214 expression fold change to HFD group,[2],2.17
same,Olfr1317 expression fold change to HFD group,[2],2.89
same,expression of olfactory receptor 38 increased,[3],more than 2 fold change
same,expression of olfactory receptor 275 increased,[3],more than 2 fold change
same,expression of olfactory receptor 290 increased,[3],more than 2 fold change
same,expression of olfactory receptor 341 decreased,[3],more than 2 fold change
same,expression of olfactory receptor 495 decreased,[3],more than 2 fold change
same,expression of olfactory receptor 520 increased,[3],more than 2 fold change
same,expression of olfactory receptor 907 decreased,[3],more than 2 fold change
same,expression of olfactory receptor 971 increased,[3],more than 2 fold change
same,expression of olfactory receptor 1046 increased,[3],more than 2 fold change
same,expression of olfactory receptor 1104 increased,[3],more than 2 fold change
same,expression of olfactory receptor 1136 decreased,[3],more than 2 fold change
same,expression of olfactory receptor 1204 increased,[3],more than 2 fold change
same,expression of olfactory receptor 1214 increased,[3],more than 2 fold change
same,expression of olfactory receptor 1317 increased,[3],more than 2 fold change
same,expression of olfactory receptor 1447 increased,[3],more than 2 fold change
same,"C/EBPα gene expression, decrease (change rate)",[4],22% decrease
same,"CPT1 gene expression, increase (change rate)",[4],50% increase^
same,"FAS gene expression, decrease (change rate)",[4],65 decrease %
same,"IL-6 gene expression, decrease (change rate)",[4],78% decrease
same,"PGC1α gene expression, increase (change rate)",[4],210% increase ^
same,"PPARγ2 gene expression, decrease (change rate)",[4],35% decrease
same,"SIRT1 gene expression, increase (change rate)",[4],98% increase^
same,"TNFα gene expression, decrease (change rate)",[4],66% decrease
same,"UCP1 gene expression, increase (change rate)",[4],450% increase ^
same,"UCP3 gene expression, increase (change rate)",[4],82% increase^
same,"aP2 gene expression, decrease (change rate)",[4],26% decrease
same,"C/EBPα gene expression, decrease (change rate)",[5],16% decrease
same,"CPT1 gene expression, increase (change rate)",[5],33% increase^
same,"FAS gene expression, decrease (change rate)",[5],40% decrease
same,"IL-6 gene expression, decrease (change rate)",[5],62% decrease
same,"PPARγ2 gene expression, decrease (change rate)",[5],94% decrease
same,"TNFα gene expression, decrease (change rate)",[5],60% decrease
same,"aP2 gene expression, decrease (change rate)",[5],29% decrease
same,"HSL phosphorylation, increase (change rate)",[6],52% increase
same,"CREB phosphorylation, increase (change rate)",[7],60% increase
same,"AKT phosphorylation, increase (change rate)",[8],59% increase
